Reference: patent US8637522B2, “Pyrazinone derivatives as insulin secretion stimulators, methods for obtaining them and use thereof for the treatment of diabetes” (Merck Patent GmbH, priority 2008, dated 2014)

Assays:
INS-1 cells = test: Insulin secretion assay in INS-1 cells (glucose at 4.2 mM); type: cell-based; details: Rattus norvegicus, INS1, glucose 4.2 mM, 1 h incubation; for activity at 10 µM: compound 10 μM, read-out: Insulin secretion, % of ctrl at 10 μM; for activity at 50 µM: compound 50 μM, read-out: Insulin secretion, % of ctrl at 50 μM
Description: Culture of Pancreatic INS-1 Cells
INS-1 cells were cultured in complete medium, RPMI 1640 containing 1 mM sodium pyruvate, 50 μM 2-mercaptoethanol, 2 mM glutamine, 10 mM HEPES, 100 IU/mL penicillin, and 100 μg/mL streptomycin (CM), supplemented with 10 mM glucose, and 10% (vol/vol) heat-inactivated fetal calf serum (FCS), as described by Asfari et al. (Endocrinology 130: 167-178, 1992).
INS-1 cells were plated and cultured in 48-well plates. After 2 days of culture, the medium was removed and cells were cultured for 24 h with a medium change to 5 mM glucose, 1% FCS. The cells were then washed with Krebs-Ringer Bicarbonate HEPES buffer (KRBH; 135 mM NaCl; 3.6 mM KCl; 5 mM NaHCO3; 0.5 mM NaH2PO4;
0.5 mM MgCl2; 1.5 mM CaCl2 and 10 mM HEPES; pH 7.4) 0.1% BSA containing 2.8 mM glucose and preincubated for 30 min at 37° C. in the same buffer. The cells were then washed twice and incubated for 1 h in KRBH 0.1% BSA containing 4.2 mM glucose and different concentrations of the tested molecule. Insulin concentration in the collected supernatants was measured with ELISA using rat insulin antibody (Insulin Rat Elit PLUS, cat. ref 10-1145-01).
Insulin secretion results are expressed in % of control (glucose 4.2 mM).
Insulin Secretion in INS-1 Cells (Glucose at 4.2 mM)

[1] = tested on: diabetic N0STZ rat islets; test: Insulin secretion in diabetic N0STZ rat islets; type: cell-based; details: 90 min, mean ± SEM
Description: Insulin Secretion in Diabetic N0STZ Rat Islets. Materials and Methods. Islets Isolation and Treatments.
14±3 weeks non-fasted N0STZ (PORTHA et al., 1974) male rats (Charles Rivers-Domaine des Oncins, I'Arbresle, France) were anesthetised with sodium pentobarbital (Nembutal®: 45 mg/kg in 5 ml/kg administered intra peritoneally) and body temperature was maintained with a heat lamp.
Rat pancreatic islets of Langerhans were isolated from the pancreas of 8 rats by collagenase P (Boehringer, Meylan, France) digestion. Islets were purified by sedimentation in Hanks balanced salt solution [NaCl (137 mM); KCl (5.36 mM); MgSO4, 7H2O (0.81 mM); Na2HPO4, 12H2O (0.34 mM); KH2PO4 (0.44 mM); CaCl2, 2H2O (1.26 mM); NaHCO3 (4.17 mM)] followed by Ficoll gradient separation.
Islets were then hand-picked under stereoscopic microscope and batches of 3 islets were incubated for 90 minutes at 37° C. with continuous shaking under a humidified condition (95% O2, 5% CO2) in 1 ml of Krebs/Hepes pH 7 solution [NaCl (115 mM), NaHCO3 (24 mM), KCl (5 mM), MgCl2 (1 mM), CaCl2, 2H2O (1 mM), 0.2% of Bovine serum albumin (Fraction V, fatty acid free, Boehringer, Mannheim), 10 mM Hepes] containing the required glucose or compound concentration.
Compounds were dissolved in DMSO at 2.10-2M stock solutions. They were then diluted at the required concentration in Krebs/Hepes buffer containing the required glucose concentration.
At the end of incubation, media was collected and insulin levels were measured using ELISA (EUROBIO, Courtaboeuf, France).
Islets were hand-picked and incubated in the presence of increasing concentrations of compounds in the presence of glucose at 2.8 or 8 mM. At the end of incubation, media was collected and insulin levels were measured using ELISA method. Results are expressed as % of glucose control (2.8 or 8 mM) and represent Means±SEM.

[2] = glucose 2.8 mM, compound 10−4 M

| melting point [°C] | Compound | activity at 10 µM (INS-1 cells) [%] | activity at 50 µM (INS-1 cells) [%] | further results |
| --- | --- | --- | --- | --- |
| 133 to 135 | CCCn1ccnc(S(=O)(=O)Cc2ccccc2)c1=O [Example 6-5, 3-(benzylsulfonyl)-1-propylpyrazin-2(1H)-one] | – | – | – |
| – | CCn1ccnc(S(=O)(=O)Cc2ccccc2)c1=O [Example 6, 3-benzylsulfonyl-1-ethylpyrazin-2(1H)-one] | 128 | 184 | – |
| 156 to 158 | CCn1cc(Cl)nc(SCC(=O)Nc2ccccc2)c1=O [Example 17, 2-[(6-chloro-4-ethyl-3-oxo-3,4-dihydropyrazin-2-yl)thio]-N-phenylacetamide] | – | – | – |
| 146 to 148 | CCn1cc(-c2ccccc2)nc(S(=O)(=O)Cc2ccc(Cl)cc2)c1=O [Example 14, 3-[(4-chlorobenzyl)sulfonyl]-1-ethyl-5-phenylpyrazin-2(1H)-one] | – | – | – |
| – | CCCCn1ccnc(S(=O)(=O)Cc2cccc(C(F)(F)F)c2)c1=O [Example 10-4, 1-butyl-3-[(3-trifluoromethylbenzyl)sulfonyl]pyrazin-2(1H)-one] | 187 | 272 | – |
| 178 to 180 | CCn1cc(Cl)nc(S(=O)(=O)CC(=O)Nc2ccccc2)c1=O [Example 18, 2-[(6-chloro-4-ethyl-3-oxo-3,4-dihydropyrazin-2-yl)sulfonyl]-N-phenylacetamide] | – | – | – |
| – | CCCCn1ccnc(S(=O)(=O)Cc2ccccc2F)c1=O [Example 10-3, 1-butyl-3-[(2-fluorobenzyl)sulfonyl]pyrazin-2(1H)-one] | 108 | 236 | – |
| 125 to 128 | CCCn1ccnc(S(=O)(=O)Cc2ccc(Cl)cc2)c1=O [Example 10, 3-[(4-chlorobenzyl)sulfonyl]-1-propylpyrazin-2(1H)-one] | 155 | 331 | Insulin secretion, % of glucose control [1, 2]: 178 ± 7 % of glucose control; Insulin secretion, % of glucose control ([1]; glucose 8 mM, compound 10−4 M): 203 ± 11 % of glucose control; Insulin secretion, % of glucose control ([1]; glucose 8 mM, compound 10−5 M): 133 ± 7 % of glucose control; Insulin secretion, % of glucose control ([1]; glucose 8 mM, compound 10−6 M): 90 ± 4 % of glucose control; Insulin secretion, % of glucose control ([1]; glucose 8 mM, compound 10−7 M): 84 ± 7 % of glucose control |
| 145 to 147 | CCn1cc(Br)nc(S(=O)(=O)Cc2ccc(Cl)cc2)c1=O [Example 13, 5-bromo-3-[(4-chlorobenzyl)sulfonyl]-1-ethylpyrazin-2(1H)-one] | – | – | – |
| 123 to 125 | CCCn1ccnc(S(=O)(=O)Cc2ccc(F)cc2)c1=O [Example 6-4, 3-[(4-fluorobenzyl)sulfonyl]-1-propylpyrazin-2(1H)-one] | 142 | 203 | – |
| 100 to 103 | CCn1ccnc(S(=O)(=O)CCOc2ccc(OC)cc2)c1=O [Example 10-7, 1-ethyl-3-{[2-(4-methoxyphenoxy)ethyl]sulfonyl}pyrazin-2(1H)-one] | – | – | – |
| 128 to 130 | CCCn1ccnc(S(=O)(=O)Cc2ccc(C)cc2)c1=O [Example 6-3, 3-[(4-methylbenzyl)sulfonyl]-1-propylpyrazin-2(1H)-one] | 144 | 207 | Insulin secretion, % of glucose control [1, 2]: 121 ± 7 % of glucose control; Insulin secretion, % of glucose control ([1]; glucose 8 mM, compound 10−4 M): 271 ± 5 % of glucose control; Insulin secretion, % of glucose control ([1]; glucose 8 mM, compound 10−5 M): 131 ± 5 % of glucose control; Insulin secretion, % of glucose control ([1]; glucose 8 mM, compound 10−6 M): 108 ± 5 % of glucose control; Insulin secretion, % of glucose control ([1]; glucose 8 mM, compound 10−7 M): 101 ± 6 % of glucose control |
| 135 to 138 | CCn1ccnc(S(=O)(=O)Cc2ccc(Br)cc2)c1=O [Example 6-6, 1-ethyl-3-[(4-bromobenzyl)sulfonyl]pyrazin-2(1H)-one] | 164 | 362 | – |
| 115 to 118 | CCn1ccnc(S(=O)(=O)Cc2ccc(Cl)cc2)c1=O [Example 6-2, 3-[(4-chlorobenzyl)sulfonyl]-1-ethylpyrazin-2(1H)-one] | 142 | 276 | – |
| – | CCn1cc(Cl)nc(S(=O)(=O)CC(=O)N2CCCCC2)c1=O [Example 18-2, 5-chloro-1-ethyl-3-[(2-oxo-2-piperidin-1-ylethyl)sulfonyl]pyrazin-2(1H)-one] | 159 | 213 | – |
| – | CCn1cc(-c2ccc(Cl)cc2)nc(S(=O)(=O)Cc2ccc(Cl)cc2)c1=O [Example 14-2, 3-[(4-chlorobenzyl)sulfonyl]-5-(4-chlorophenyl)-1-ethylpyrazin-2(1H)-one] | 181 | – | – |
| – | CCCCn1ccnc(S(=O)(=O)Cc2ccc(Cl)cc2)c1=O [Example 10-5, 1-butyl-3-[(4-chlorobenzyl)sulfonyl]pyrazin-2(1H)-one] | 153 | 261 | – |
| – | CCCn1ccnc(S(=O)(=O)CCc2ccc(Cl)cc2)c1=O [Example 10-6] | 127 | 180 | – |
